Assay [1] can be described thus: Absorbance binding spectra of doxorubicin titrated with caffeine or chlorophyllin. To be noted: 10 μM doxorubicin.
Assay [2] can be described thus: Optical absorbance titration of chlorophyllin with acridine orange. The assay is classed as binding. The settings on record: AO:chlorophyllin ratio between 0.1 and 30. The source says:
The invention is not limited to the use of xanthines as interceptor molecules. For example, chlorophyllin and porphyrins may be used as a binding agent to intercalator molecules. FIG. 2-3 shoes the optical absorbance spectra titrating cholorphyllin with increasing concentraitons of acridine orange. The selected spectra denoting important transitions within the titration series are denoted by the bold lines. At AO:chlorophyllin ratio between 0.1 and 30, prevalent peaks occur at λabs of 415 nm for chlorophyllin, 475 nm, and 492 nm. These later peaks correspond to the prevalent absorbance peaks found at concentrations of AO at 10 μM and higher concentrations. […] Thus, other compounds may be used as interceptors such as, but not limited to porphyrins, purines, pyrimidines, polynucleotides and uric acid.

Assay [3] has as its system Drosophila salivary gland polytene chromosome. As to the kind of experiment: Removal of DNA binding stains from polytene chromosome bands by xanthine wash. Also on record: species or system Drosophila melagaster. To be noted: for Re-staining following Xanthine Exposure / Staining before Xanthine Exposure: 1 mM stain, 30 minutes; for Degree of Stain Removal, Exposure to AM (100 mM) / Degree of Stain Removal, Exposure to CAF (100 mM): 15 minute wash, static. The protocol: In another implementation, giant polytene chromosomes were prepared by the squash technique from the salivary gland of Drosophila melagaster larva The salivary gland was placed on a microscope slide, squashed with a glass cover slide, fixed with acidic acid, rinsed with distilled water, and allowed to dry (kindly provided by Linda Chadwell, UTHSCSA-IBT). Three known DNA intercalators, ethidium bromide (98% purity, Aldrich Chemical Company, Milwaukee, Wis.), doxorubicin (98%, Sigma Chemnical Company, St. Louis, Mo.), and acridine orange plus the minor groove binding DNA stain Hoechst 33258 (98%, ACROS Chemical Company, NJ) were prepared in distilled water at a concentration of 1 mM (for chemical structures see FIG. 4-1, where acridine orange (3,6-bis [dimethylamino] acridine) is shown in Panel A, ethidium bromide is shown in Panel B, doxorubicin is shown in Panel C, Hoechst 33258 is shown in Panel D). The slides with prepared chromosomes were immersed in these stains for a period of 30 minutes, rinsed with distilled water, and dried at room temperature. Fluorescence microscopic analysis was conducted at λex 360 nm and photomicrographs were conducted on a Zeiss Model 63 Microscope with a xenon source fluorescent emitter. Photomicrographs were taken using Kodak Gold 35 mm ASA 1600 speed film noting the position of one individual chromosome on the slide. The stained slides were then subjected to 100 mM caffeine or 100 mM aminophylline under static conditions for a period of 15 minutes, rinsed with distilled water, then allowed to dry at room temperature. The presence of the same individual unstained chromosome in the field was confirmed by phase contrast microscopy. The chromosome was viewed again under fluorescence microscopy at […], and color recorded. Slides were re-stained by immersion in the 1 mM stain for a period of 30 minutes, rinsed with distilled water, and dried at room temperature, and the same individual chromosome was examined by fluorescence microscopy and the fluorescence color recorded.
FIG. 4-3 depicts three photomicrographs of the same Drosophila polytene chromosome: after staining with the DNA minor groove binder Hoechst 33258 dye (Panel A), after rinsing with CAF for 15 minutes (Panel B), and a phase contrast verification of the presence of the chromosome after the CAF rinse (Panel C). Table 4-4 summarizes the results from the experiments using caffeine (CAF) and aminophylline (AM) to remove the following DNA intercalators: doxorubicin, ethidium bromide, acridine orange, and the DNA minor groove binder Hoechst 33258 from their binding sites within polytene chromosomes. […] With all DNA intercalators, the staining of chromosome bands was intense before the xanthine rinses and was again intense following re-staining.

The test system of assay [4] is chicken erythrocyte nuclear chromatin. Put plainly: Blocking of acridine orange intercalation into chicken erythrocyte nuclear chromatin, fluorescence microscopy. Also on record: key: 0: no blocking effect; 1: slight blocking; 2: moderate blocking; 3: almost total blocking (very slight green fluorescence detectable); 4: complete blockage (no green fluorescence detectable). To be noted: 10 μM AO. As to the method: Microscope slides coated with chicken erythrocyte were stained with 10 μM AO at three separate areas on the microscope slide as described above. Slides were exposed to […] different xanthies at four different molar ratios for three different periods of time. The xanthines, theophylline, caffeine, 1,3,7,9-tetramethyl uric acid, and aminophylline, were prepared with 10 μM AO at molar ratios of 50:1, 500:1, 2500:1, 5000:1 xanthine to AO in distilled water. Microscope slides coated with chicken erythrocytes were exposed to a mixture of xanthine/AO at each molar ratio for periods of 10 min, 1 min, and 10 seconds under static (non-agitated) conditions. […] Following exposure to the xanthine/AO or to the DNA/AO solutions, the slides were rinsed in distilled water, allowed to dry at room temperature, examined by fluorescence microscopy, and the color of the nuclei recorded. Results were recorded as follows: 0=no blocking effect; 1=slight blocking; 2=moderate blocking; 3=almost total blocking (very slight green fluorescence detectable); 4=complete blockage (no green fluorescence detectable).
In the implementation shown in Table 4-2, the relative intensity of the green fluorescent color ([…]) utilizing a red blocking filter (≧600 nm) was used as the indicator of the intensity of staining. The molar ratio is expressed as the ratio of xanthine concentration to 10 μM AO. Results were recorded as follows: 0=no blocking effect; 1=slight blocking; 2=moderate blocking; 3=almost total blocking (very slight green fluorescence detectable); 4=complete blockage (no green fluorescence detectable). *Kassoc values for the xanthines are taken from Table 2-1 and the Kassoc values for DNA were taken from Table 3-2.

The nature of assay [5]: Optical titration (absorbance) of acridine orange with xanthines/purines, Kassoc from delta absorbance. The assay is classed as binding. The settings on record: for Kassoc ± S.E.: binding affinity between acridine orange (10 μM) and compound, 5 mM HEPES pH 7.0, 25±1° C., 0 = no measurable association detected. As to the method:
A red spectral shift in the optical adsorption maximum of AO upon the addition of a particular xanthine, indicates the possibility of a complex being formed between the two compounds. Spectral shifts can be measured by optical titrations.
Optical titrations (serial additions of various xanthines to a solution of AO) were performed on a Beckman DU-600 Scanning Spectrophotometer (Beckman Instrument Co., New York, N.Y.) using a 3 mL (1-cm light path) quartz cuvette containing 2.0 mL of a […]. The DU600 Spectrophotometer was blanked with 2 mL of a pH 7.0 buffered 5 mM HEPES solution over the full range of wavelengths to be scanned prior to sample analysis. This reduced the need to subtract the background absorbance from the HEPES buffer. Optical absorbance scans were performed over a wavelength range preferably from 400 nm to 550 nm. […] The 10 μM AO solution was scanned before the start of each titration series to quantitatively monitor any changes in the absorbance spectrum. Optical absorbance experiments were performed using aliquots varying in volume from 1:L to 20:L taken from prepared xanthine stock solutions (5 mM to 50 mM) and titrated into the cuvette containing 2.0 mL of the 10 μM AO solution. The solution in the cuvette was then thoroughly mixed by 10 seconds of shaking before scanning. All titrations were performed at room temperature (25±1° C.). The absorbance spectra were measured in 1 nm intervals and stored in digital form. Digitized scan data was converted to a Lotus Spreadsheet file (*.wk1) using a conversion program supplied by the manufacturer (Beckman Instruments Inc.) then imported into a Microsoft Excel 97™ Workbook file (*.xls) and saved in this format for further analysis. Spectral data for each titration was combined and expressed in graphic form (Excel™) (X-axis=wavelength in nm; Y-axis=optical absorbance) for each xanthine titrated with AO. […] Adjusted absorption values were plotted and compared to spectra from non-complexed AO. This allowed for the visualization of an expected spectral shift that occurs when AO forms a complex with a xanthine.
The association constant, Kassoc, may be used to analyze the binding ability of modified xanthines to DNA intercalators. The association constant may be calculated based upon a differential shift in the absorbance spectrum. When the presence of the xanthine caused a spectral shift, a difference absorbance plot or delta plot was obtained. Delta plots were constructed by subtracting the adjusted absorption spectrum of AO in the presence of the xanthine from the initial spectrum of AO alone at each wavelength and for each aliquot of the titration. This procedure allowed for the creation of difference absorption values or delta absorption values. Delta absorption values obtained in this manner (Y-axis=delta absorption) were plotted against wavelength in nm (X-axis). The appearance of a single isobestic point was indicative of only two species present in solution, AO, and an AO complex. Graphic representation allowed for the selection of a wavelength with the maximum sensitivity for determining the association constant. This wavelength was characterized by the greatest positive response in delta absorbance values observed upon addition of each aliquot of xanthine to the AO solution. The AO-xanthine association or binding constant was determined by the following equilibrium expression: I+X≡IX EQUATION 1: […]
Where I represents the intercalator (AO), X represents the interceptor molecule (xanthine), and IX represents the AO-xanthine complex, respectively.

Assay [6] has as its system chicken erythrocyte nuclear chromatin. Put plainly: Removal of acridine orange from stained chicken erythrocyte nuclear chromatin by xanthine rinse, fluorescence microscopy. The settings on record: for Nuclear color, Stain: before xanthine rinse; for Nuclear color, Re-stain: re-stained after xanthine rinse; for Nuclear color, After Rinse: xanthine rinse 50 mM, 1 hour, static. As to the method: Experiments were conducted to determine whether xanthines with known binding affinities to AO could compete with nuclear DNA for binding to AO and, therefore, be able to remove AO from its intercalation position within nuclear chromatin. Fluorescence microscopy was used to observe the fluorescent color produced by the AO-DNA complex following the staining of chicken erythrocyte nuclear chromatin with AO at both 5 μM and 5 mM.
Microscope slides smeared with chicken erythrocytes were stained with either 5 μM or 5 mM AO for a period of 30 minutes followed by three 10 second rinses in distilled water before drying at room temperature. Slides were then examined by fluorescence microscopy using a, Zeiss Model 63 Microscope with a xenon source fluorescent emitter. In some instances, a blocking filter was used to filter out fluorescence emission in the red and higher wavelengths. Photomicrographs were taken with Kodak Gold 35 mm ASA 1600 speed film, developed and color prints made. Comparative photomicrographs were taken at the same magnification and at the same exposure time. Selected photomicrographs were digitally scanned (Hewitt-Packard, Model 4L Scanner, Palo Alto, Calif.) and stored on 100 MB ZIP cartridges.
Slides were again examined by fluorescence microscopy and fluorescence color of the nuclei recorded. Slides were again stained with 5 mM AO then re-examined by fluorescence microscopy and fluorescence color of the nuclei recorded.
In the example shown in Table 4-3, the chicken erythrocytes were smeared and dried on a microscope slide prior to exposure to the AO solution for 30 minutes followed by water rinses to remove excess AO. Following drying, each slide was observed under fluorescence microscopy then placed in one of the xanthine solutions (50 ml volume) for 1 hour under static conditions, rinsed with water, then dried prior to being observed by fluorescence microscopy without a red blocking filter. Finally, each slide was restained following the initial staining procedures and again observed by fluorescence microscopy. Kassoc values are taken from Table 2-1 and are expressed in M^−1.

“Also recorded” adds a separate entry of the source.

With chlorophyllin, the “binding to doxorubicin” value in assay [1] is listed as “doxorubicin can be bound to chlorophyllin”. For the same compound, in assay [2], the “complexation with acridine orange” value is given as “complexes with acridine orange”.

As for `CN1CCN(c2ccc3[nH]c(-c4ccc5[nH]c(-c6ccc(O)cc6)nc5c4)nc3c2)CC1` [Hoechst 33258], in assay [3], the “Re-staining following Xanthine Exposure” value was “Complete”; the “Staining before Xanthine Exposure” value is given as “Banding”; the “Degree of Stain Removal, Exposure to AM (100 mM)” value (shortened to “Degree … to AM (100 mM)”) is reported as “apparently complete removal”; the “Degree of Stain Removal, Exposure to CAF (100 mM)” value was “apparently complete removal”.

With `COc1cccc2c1C(=O)c1c(O)c3c(c(O)c1C2=O)C[C@@](O)(C(=O)CO)C[C@@H]3O[C@H]1C[C@H](N)[C@H](O)[C@H](C)O1` [Doxorubicin, doxorubicin], in assay [3], the “Re-staining following Xanthine Exposure” value is “Complete”; the “Staining before Xanthine Exposure” value is recorded as “Banding”; the “Degree … to AM (100 mM)” value is “Moderate”; the “Degree of Stain Removal, Exposure to CAF (100 mM)” value is recorded as “completely removed; also recorded: Complete”. For the same compound, in assay [3] (listed as doxorubicin), the “Degree … to AM (100 mM)” value is reported as “only moderately removed”.

In the case of `Cn1c(=O)c2c(n(C)c1=O)n(C)c(=O)n2C` [1,3,7,9-tetramethyl-8-oxy xanthine], the “blocking of AO intercalation” value in assay [4] (Xanthine/AO molar ratio 5000:1, exposure 10 min) is on record as 2; in assay [4] (molar ratio 50:1, exposure 10 sec), 0; in assay [4] (molar ratio 50:1, exposure 1 min), 0; in assay [4] (molar ratio 50:1, exposure 10 min), 0; in assay [4] (molar ratio 500:1, exposure 10 sec), 0; in assay [4] (molar ratio 500:1, exposure 1 min), 0. Also, the “blocking of AO intercalation” value in assay [4] (molar ratio 500:1, exposure 10 min) was determined as 0; in assay [4] (molar ratio 2500:1, exposure 10 sec) it was 0; in assay [4] (molar ratio 2500:1, exposure 1 min) it was 1; in assay [4] (molar ratio 2500:1, exposure 10 min) it was 1; in assay [4] (molar ratio 5000:1, exposure 10 sec), 2; in assay [4] (molar ratio 5000:1, exposure 1 min), 2. Besides, the Kassoc in assay [5] (Table 2-2, Kassoc value with acridine orange (this report)) was 552 M⁻¹; in assay [5] (Table 4-2, in parentheses under compound, taken from Table 2-1) it was “(552) M^−1”; in assay [5] (Table 4-3, taken from Table 2-1), 552 M⁻¹. Besides, the “Kassoc ± S.E.” value stood at 551.5 ± 9.0 M⁻¹ in assay [5] and 552 M⁻¹ in assay [5] (listed as 1,3,7,9-tetramethyl uric acid). In assay [6] (50 mM xanthine rinse), the “effect of xanthine rinse on fluorescence of AO stained nuclear chromatin” value is “removal of most, if not all, green and red color”. Also, the entries for the “Nuclear color, Stain” value in assay [6] (AO [5 μM] 30 minutes) and in assay [6] (AO [5 mM] 30 minutes) were “Green” and “Red”, respectively. The “Nuclear color, Re-stain” value in assay [6] (AO [5 μM]) was “Green”; in assay [6] (AO [5 mM]) it was “Red”. Also, the “Nuclear color, After Rinse” value in assay [6] (AO [5 μM]) and in assay [6] (AO [5 mM]) was “None” throughout.

The values above are taken from patent publication US7662767B2, “Polynucleotide intercalator interceptors and inhibitors” (Materials Evolution and Development USA, Inc., priority 2000, dated 2010).
